This is an account of results in ChEMBL document CHEMBL3507680, “University of Dundee, Gates Library screen for HepG2 cell viability”.

The nature of the data set: Human HepG2 cell viability assay in 384 well format. The note with it: HepG2 cells, read-out: Inhibition. In kind it is toxicity, cell-based. Also on record: dose 125 nL, time 70.5 hour; concentration not given beside the values.
As for `O=C(Nc1ccc(Cl)cc1C(=O)NCCN1CCOCC1)c1ccco1`, the cytotoxicity at 70.5 h was -0.882%.

On to `Cc1cc(C)n(C2=NC(NCCC(C)C)c3c(sc4c3CCCC4)N2)n1` (stereo not given), for which the cytotoxicity at 70.5 h turned out to be 1.07%.

Regarding `COCCC(=O)Nc1cnn(COc2ccc(F)cc2Cl)c1`, the cytotoxicity at 70.5 h is 27.4%.

Consider `O=C(COc1ccc2c(c1)OCO2)NCc1ccco1`, for which the cytotoxicity at 70.5 h is -5.95%.

As for `CCCNCc1ncc(C)c(OC)c1C`, the cytotoxicity at 70.5 h is -6.98%.

Regarding `Cc1cc(=O)n2c3c(cc(S(=O)(=O)NC4CC4)cc13)CCC2`, the cytotoxicity at 70.5 h turned out to be 31.9%.

Regarding `CCCN(C(=O)CS(=O)(=O)c1ccccc1)c1cccc(C)c1`, the cytotoxicity at 70.5 h is -5.44%.

Consider `Cn1cc(Br)c(C(=O)NCCn2cc(Br)cn2)n1`, for which the cytotoxicity at 70.5 h came to 8.47%.

On to `COc1ccc(-c2cc(C(=O)N3N=C(C)CC3(O)C(F)(F)F)[nH]n2)cc1` (stereo not given), for which the cytotoxicity at 70.5 h was determined as 12.4%.

Consider `COc1cccc(-c2cc(C(=O)N3N=C(C)CC3(O)C(F)(F)F)[nH]n2)c1` (stereo not given), for which the cytotoxicity at 70.5 h is -16.8%.

As for `O=C(c1ccnn1COc1ccc(Cl)cc1)N1CCOCC1`, the cytotoxicity at 70.5 h was -6.03%.

On to `CCn1cc(NC(=O)C(C)n2ncc(Cl)c2C)c(C(=O)NCC(C)C)n1` (stereo not given), for which the cytotoxicity at 70.5 h is -3.04%.

For the molecule `Cc1c(Br)cnn1CCC(=O)N(C)Cc1c(Cl)cnn1C`, the cytotoxicity at 70.5 h came to 30.7%.

Take `CS(=O)(=O)Nc1ccn(Cc2ccc(F)cc2Cl)n1`: the cytotoxicity at 70.5 h was -12.3%.

On to `CCS(=O)(=O)Nc1ccn(Cc2cccc(F)c2)n1`, for which the cytotoxicity at 70.5 h is -11.5%.

On to `Cc1cc(C(F)(F)F)nn1CCCNC(=O)C1CCN(S(C)(=O)=O)CC1`, for which the cytotoxicity at 70.5 h is -10.7%.

On to `CCn1cc(S(=O)(=O)N2CCN(C(=O)c3cc(Br)cs3)CC2)c(C)n1`, for which the cytotoxicity at 70.5 h is 21.7%.

With `CCn1ncc(-c2cc(C(F)F)nc3sc(C(N)=O)c(N)c23)c1C`, the cytotoxicity at 70.5 h came out at 9.78%.

Consider `Cc1c(Br)c(C(F)(F)F)nn1C(C)C(=O)O` (stereo not given), for which the cytotoxicity at 70.5 h was -11.2%.

On to `Cn1nc(C(=O)N2CCOCC2)cc1C(=O)Nc1ccc(Cl)cc1Cl`, for which the cytotoxicity at 70.5 h was -2.86%.

Consider `COc1cc(NC(=O)NCC2CCCO2)cc(OC)c1OC` (stereo not given), for which the cytotoxicity at 70.5 h was -5.38%.

Regarding `Cc1cccc(N2CCCN=C2NC(=O)c2cccc(Cl)c2)c1`, the cytotoxicity at 70.5 h was -9.98%.

As for `CCOc1ccc(N2CCCN=C2NC(=O)c2cccc(C)c2)cc1`, the cytotoxicity at 70.5 h is -6.22%.

Take `CN1CC(Oc2ccc(Cl)cc2)=NC(SCC(=O)Nc2ccccc2)=N1`: the cytotoxicity at 70.5 h was determined as 7.43%.

`CN1CC(Oc2ccc(Cl)cc2)=NC(SCC(=O)c2ccccc2)=N1`: the cytotoxicity at 70.5 h amounted to 14.8%.

With `CC(C)c1cc2c(s1)NC(c1ccccn1)NC2=O` (stereo not given), the cytotoxicity at 70.5 h was -3.28%.

As to `OC1=C2C(=Nc3n[nH]c(O)c3C2c2ccco2)CCC1` (stereo not given), the cytotoxicity at 70.5 h is -9.2%.

For `CCOc1ccc(C2C3=C(O)OCC3=Nc3nc(SC)nc(N)c32)cc1` (stereo not given), the cytotoxicity at 70.5 h came to 9.83%.

With `Cc1nn(C)c2c(N3CCN(C(=O)C4CCCCC4)CC3)ncnc12`, the cytotoxicity at 70.5 h stood at 14.6%.

As for `Cc1nn(C)c2c(N3CCN(C(=O)C4CCCO4)CC3)ncnc12` (stereo not given), the cytotoxicity at 70.5 h was found to be 1.72%.

For the molecule `CC(C)N1CCC(c2n[nH]cc2S(C)(=O)=O)CC1`, the cytotoxicity at 70.5 h is -10.2%.

For `CNC(=O)C1(C)CN(Cc2cn(C)c3ccc(F)cc23)CCO1` (stereo not given), the cytotoxicity at 70.5 h is -9.03%.

As for `Cc1ncsc1CN1CCOC(C)(C(N)=O)C1` (stereo not given), the cytotoxicity at 70.5 h was -1.13%.

As for `CC(=O)N1CCC(c2ccnc(Nc3cc(C(F)(F)F)ccn3)n2)C1` (stereo not given), the cytotoxicity at 70.5 h was determined as 19.8%.

In the case of `O=C(NCCc1ccccc1)C1CCN(C(=O)Cn2cncn2)C1` (stereo not given), the cytotoxicity at 70.5 h was -10.2%.

In the case of `CN(C)Cc1cc(C2CCCN(S(=O)(=O)c3cccc(Cl)c3)C2)nn1C` (stereo not given), the cytotoxicity at 70.5 h was -14.6%.

As to `O[C@H]1CN(Cc2c[nH]nc2-c2ccccc2)CC[C@@]12CCCO2`, the cytotoxicity at 70.5 h came to 15.7%.

`Cc1cc(Nc2cnccn2)nc(C2CCCN(CCO)C2)n1` (stereo not given): the cytotoxicity at 70.5 h is -10.3%.

For the molecule `Nc1nccc(C2CCN(CC3CC3)C2)n1` (stereo not given), the cytotoxicity at 70.5 h was 17.6%.

Turning to `Cc1cc(-c2c[nH]nc2C2CCCCN2C(=O)c2ccccc2)on1` (stereo not given), the cytotoxicity at 70.5 h was -9.53%.

As to `CCc1n[nH]c(C(=O)NCCn2nccc2C)c1C`, the cytotoxicity at 70.5 h was -5.81%.

With `O=C1CCC[C@]2(CN(S(=O)(=O)N3CCOCC3)C[C@H]2c2cccnc2)N1`, the cytotoxicity at 70.5 h was -4.54%.

Turning to `Nc1nccc(C2CCCN(CC3CC3)C2)n1` (stereo not given), the cytotoxicity at 70.5 h is -4.18%.

With `CCn1cc(-c2nccnc2C2CCCN(C(C)=O)C2)cn1` (stereo not given), the cytotoxicity at 70.5 h was -4.58%.

Consider `Cc1cc(C)n(C2CCN(Cc3nc4ccccc4n3C)CC2)n1`, for which the cytotoxicity at 70.5 h amounted to 1.81%.

For `C[C@@H]1CN(c2nc(O)cc(Cc3ccccc3F)n2)C[C@H](C)O1`, the cytotoxicity at 70.5 h turned out to be 19.5%.

Regarding `O=C(NCc1ccccn1)c1cncc(C2CCCN2)n1` (stereo not given), the cytotoxicity at 70.5 h was found to be 22.2%.

For the molecule `CCn1ccc(-c2cc(NCCCOc3cccc(C)c3)nc(C)n2)n1`, the cytotoxicity at 70.5 h is -6.25%.

As to `CCCn1cc(C(=O)N2CCCC2(C)c2nc(C)cc(N)n2)cn1` (stereo not given), the cytotoxicity at 70.5 h is -1.03%.

For `c1ccc(N2CCN(Cc3cnc(C4CCCCO4)nc3)CC2)nc1` (stereo not given), the cytotoxicity at 70.5 h was -4.5%.

As to `CCc1n[nH]c(C(=O)NCCn2ccc(C)n2)c1C`, the cytotoxicity at 70.5 h was determined as 17.6%.

Turning to `CNc1ncc(CN(C)C2CCN(C(C)C)CC2)cn1`, the cytotoxicity at 70.5 h was -3.89%.

In the case of `CCCC(=O)N1CCCC(c2ccccn2)C1` (stereo not given), the cytotoxicity at 70.5 h was -1.3%.

Take `Cn1cc(CN2CCOC(c3nccnc3-c3cccc(F)c3)C2)cn1` (stereo not given): the cytotoxicity at 70.5 h turned out to be 21.8%.

Turning to `Nc1nccc(C2CCCN2CCc2ccccc2)n1` (stereo not given), the cytotoxicity at 70.5 h is -1.57%.

For the molecule `CCN(CC)S(=O)(=O)N1CC[C@H](c2ccccc2)[C@@H]2[C@H]1CCCCN2C`, the cytotoxicity at 70.5 h is -0.108%.

For the molecule `COCC(=O)N1CCN(C)C(=O)C(Cc2ccc(-c3cccs3)cc2)C1` (stereo not given), the cytotoxicity at 70.5 h is -1.25%.

On to `CC(C)C(=O)N1CCC(C)(c2cc[nH]n2)CC1`, for which the cytotoxicity at 70.5 h was -0.608%.

For the molecule `Cc1nc2cc(C3CCCCN3C(=O)C3CC3)nn2c(O)c1C` (stereo not given), the cytotoxicity at 70.5 h was -2.34%.

On to `Cc1ncsc1C(=O)N1CCCCC1c1cc2nc(C)c(C)c(O)n2n1` (stereo not given), for which the cytotoxicity at 70.5 h was -4.23%.

Turning to `CN(C)CCN(C)C(=O)Cn1cccc2cc(-c3ccc(F)cc3)nc1-2`, the cytotoxicity at 70.5 h worked out at 4.32%.

Consider `CC1Cc2ccccc2N1C(=O)Cn1nc(-c2cccs2)ccc1=O` (stereo not given), for which the cytotoxicity at 70.5 h is -8.13%.

Turning to `Cc1cccc(CNC(Cc2ccsc2)c2nccs2)n1` (stereo not given), the cytotoxicity at 70.5 h came to 0.0464%.

Regarding `CC(=O)N1Cc2ccccc2OC2(CCN(C(=O)C3CCOC3)CC2)C1` (stereo not given), the cytotoxicity at 70.5 h is -1.13%.

Turning to `Cc1cnc(-c2nc(O)c3c(n2)CN(C(=O)C2CC2)CC3)cn1`, the cytotoxicity at 70.5 h is -4.33%.

Regarding `Cc1cnc(-c2nc(O)c3c(n2)CN(C(=O)C2CCCO2)CC3)cn1` (stereo not given), the cytotoxicity at 70.5 h is -1.18%.

On to `COc1ccc(F)cc1-c1ccccc1CC1(C(=O)O)CCOCC1`, for which the cytotoxicity at 70.5 h was found to be 27.6%.

Take `Nc1cc(-c2cccs2)nn(CC(=O)N2CCc3ccccc32)c1=O`: the cytotoxicity at 70.5 h is -2.52%.

On to `Clc1cccc(Cl)c1CN(CCCN1CCOCC1)Cc1cccnc1`, for which the cytotoxicity at 70.5 h is -11.4%.

Consider `O=C(Cc1cccc(O)c1)N1CCCC(O)(CN2CCOCC2)CC1` (stereo not given), for which the cytotoxicity at 70.5 h amounted to 0.936%.

On to `Cc1ccc(N(C)[C@@H]2CC[C@@H]3CN(C(=O)Cc4cccs4)C[C@@H]32)nn1`, for which the cytotoxicity at 70.5 h is -5.34%.

For `Cn1cc(CN2CCCC(c3nccnc3-c3cccc(F)c3)C2)cn1` (stereo not given), the cytotoxicity at 70.5 h turned out to be 16.1%.

For `Cc1c[nH]nc1C1CCN(C(=O)CC2CCCC2)C1` (stereo not given), the cytotoxicity at 70.5 h was -6.41%.

`COc1ccccc1C1Cn2c(C)cnc2CN1Cc1ccc(C)nc1` (stereo not given): the cytotoxicity at 70.5 h worked out at 22.5%.

As to `CC(NC1(CNS(C)(=O)=O)CCCC1)c1ccccc1` (stereo not given), the cytotoxicity at 70.5 h is -16.9%.

On to `Cc1ccc(CNCCC(O)(c2nccn2C)C(F)(F)F)o1` (stereo not given), for which the cytotoxicity at 70.5 h is -6.24%.

On to `COCC1CCN(CCOc2ccc(C#N)cc2OC)CC1`, for which the cytotoxicity at 70.5 h amounted to 20.7%.

In the case of `CCC(NC(=O)c1ccc(COC)o1)c1nc(C(F)(F)F)cs1` (stereo not given), the cytotoxicity at 70.5 h was determined as 4.55%.

On to `CNC(=O)CNC(=O)Nc1ccc(F)c(Br)c1`, for which the cytotoxicity at 70.5 h is -2.46%.

`O=C(NCCO)Nc1ccc(Br)c(F)c1`: the cytotoxicity at 70.5 h was -0.649%.

On to `CC(C)N(C(=O)c1ccnc(OCC(F)(F)F)c1)c1cccnc1`, for which the cytotoxicity at 70.5 h is -12.7%.

As to `Clc1ccc(N2CCN(CCCN3CCCCC3)CC2)nc1`, the cytotoxicity at 70.5 h turned out to be 7.35%.

Turning to `N#Cc1ccc(CS(=O)(=O)NC(=O)c2ccc3c(c2)COC3)cc1`, the cytotoxicity at 70.5 h worked out at 14.9%.

Consider `CC(C)CC1(C(=O)NCc2nncn2C2CC2)CCC1`, for which the cytotoxicity at 70.5 h turned out to be 1.12%.

Regarding `CC(C)CC1(C(=O)NCCc2nncn2C2CC2)CCC1`, the cytotoxicity at 70.5 h is -3.78%.

`Cc1n[nH]c(-c2ccc(NC(=O)C(C)(C)N3CCN(C)CC3)cc2)n1`: the cytotoxicity at 70.5 h is -7.96%.

Regarding `CC(NCc1cccn1C)c1noc(-c2ccc(Cl)cc2)n1` (stereo not given), the cytotoxicity at 70.5 h is -9.95%.

As for `CCn1cc(CNC(C)c2noc(-c3ccc(Cl)cc3)n2)cn1` (stereo not given), the cytotoxicity at 70.5 h is -3.37%.

Take `O=C(NC1CC1)N(CCc1ccccc1)C1CCOC1` (stereo not given): the cytotoxicity at 70.5 h is 12.1%.

In the case of `Cc1nnc(NCc2ccc(F)cc2)o1`, the cytotoxicity at 70.5 h is -2.93%.

`CCc1ccc(C(=O)N(c2cccnc2)C(C)C)cc1S(C)(=O)=O`: the cytotoxicity at 70.5 h was -8%.

As to `CC(C)(C)c1nnc(NCc2ccc(F)cc2)o1`, the cytotoxicity at 70.5 h is -2.71%.

Regarding `COc1ccc(CNC(c2cccc(F)c2)c2cnn(C)c2)cc1` (stereo not given), the cytotoxicity at 70.5 h is -3.12%.

For the molecule `NC(=O)C1CNCCN1C(=O)COc1ccccc1` (stereo not given), the cytotoxicity at 70.5 h was -7.46%.

With `COc1cc2cc(C)c(SCCN3CCCCC3)nc2cc1OC`, the cytotoxicity at 70.5 h was determined as 4.15%.

As for `CC(C)Oc1cccc(CNC(Cc2ccsc2)c2nccs2)c1` (stereo not given), the cytotoxicity at 70.5 h is -2.9%.

For `Cc1ccc(C2(CN3CCN(Cc4cnc(C)n4C)CC3)CC2)cc1`, the cytotoxicity at 70.5 h is 32.9%.

Consider `CN(C)Cc1cc(C2CCCCN2S(=O)(=O)c2cccc(Cl)c2)nn1C` (stereo not given), for which the cytotoxicity at 70.5 h was -3.27%.

On to `Cc1cc(N(C)C)nc(C2CCNC2)n1` (stereo not given), for which the cytotoxicity at 70.5 h is 45.3%.

Turning to `CCc1ncc(CN(C)C2CCN(C(C)C)CC2)cn1`, the cytotoxicity at 70.5 h was found to be 13.4%.
